Reference: PMC13304707 (Acta Pharmaceutica Sinica. B, 2025)

Columns and labels:
VPS34 = conditions: read-out: enzymatic inhibitory potency against VPS34; ref [30], [31], [32], [33]; cited from earlier work
[1] = Cell cytotoxicity, CCK-8 assay; type: cell-based; conditions: African green monkey, Vero E6 cells
[2] = Degradation in liver microsomes; type: in vitro ADME
[3] = Plasma PK profile after single intraperitoneal injection; type: in vivo, C57BL/6 mice
CYP3A4 = CYP3A4 (Homo sapiens, UniProt P08684); assay: Screening of cytochrome P450 enzymes responsible for degradation; type: in vitro ADME; conditions: liver microsomes, CYP450 screening
Sequence of CYP3A4 (P08684 whole entry, species assumed): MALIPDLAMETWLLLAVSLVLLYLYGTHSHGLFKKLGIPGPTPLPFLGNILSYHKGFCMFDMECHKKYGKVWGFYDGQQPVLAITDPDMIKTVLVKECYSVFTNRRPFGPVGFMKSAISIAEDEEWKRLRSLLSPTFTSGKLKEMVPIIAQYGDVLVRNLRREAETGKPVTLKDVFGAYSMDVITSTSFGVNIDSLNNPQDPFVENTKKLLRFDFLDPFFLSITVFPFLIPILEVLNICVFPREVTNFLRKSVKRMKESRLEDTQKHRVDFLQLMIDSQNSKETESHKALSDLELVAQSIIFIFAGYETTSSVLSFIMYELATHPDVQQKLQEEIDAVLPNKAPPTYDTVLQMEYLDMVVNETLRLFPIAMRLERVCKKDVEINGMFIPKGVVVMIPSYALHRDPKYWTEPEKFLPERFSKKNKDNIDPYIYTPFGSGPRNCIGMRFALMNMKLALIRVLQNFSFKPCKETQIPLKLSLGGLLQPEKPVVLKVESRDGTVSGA

[4] = Tissue distribution after ip administration; type: in vivo, mice; conditions: 10 mg/kg ip

Compound | IC50 (VPS34) [nM] | CC50 at 48 h [1] [µM] | time to extensive degradation to minimal levels in liver microsomes [2] [min] | AUC(0-t) ([3]; C57BL/6, mouse, ip, 10 mg/kg) [ng·h/mL] | Cmax ([3]; C57BL/6, mouse, ip, 10 mg/kg) [ng/mL] | half-life ([3]; C57BL/6, mouse, ip, 10 mg/kg) [min] | Tmax ([3]; C57BL/6, mouse, ip, 10 mg/kg, Tmax, mice, 10 mg/kg ip) [min] | CL ([3]; mice, 10 mg/kg ip) [mL/min/kg] | degradation upon addition of 6β-hydroxytestosterone, a specific inhibitor of CYP3A4 (CYP3A4) | time to Cmax in tissues (cardiorespiratory and renal systems) [4] [min]
Nc1ncc(-c2ccnc(Nc3ccncc3)n2)c(CC2CC2)n1 [PIK-III] | 18 | 45.8 |  |  |  |  |  |  |  | 
C[C@@H]1COCCN1c1cc(=O)n2c(n1)N(Cc1cncc(Cl)c1)[C@H](C(F)(F)F)CC2 [SAR405] | […] | […] | […] | […] | 5820 ± 723 | […] | 8.4 ± 6 | […] | almost completely attenuated | ≤ 10
CC(C)(O)CNc1ncc(-c2ccnc(Nc3ccnc(Cl)c3)n2)c(CC2CC2)n1 [VPS34-IN-1] | 25 | 11 |  |  |  |  |  |  |  | 
CC(C)C(=O)CN1c2nc(N3CCOC[C@H]3C)cc(=O)n2CC[C@H]1C(F)(F)F [VPS34-IN-2, (2S)-8-[(3R)-3-methylmorpholin-4-yl]-1-(3-methyl-2-oxobutyl)-2-(trifluoromethyl)-3,4-dihydro-2H-pyrimido[1,2-a]pyrimidin-6-one] |  | 54.5 |  |  |  |  |  |  |  | 
